Measured values as given in patent publication US6362192B1, “2-(Pyrazolyloxy) -pyridin-3-ylacetic acid derivatives, agents containing the same and use thereof against noxious fungi and animal parasites” (BASF Aktiengesellschaft, priority 1998, dated 2002).

Columns and labels:
Assay type in all cases: in vivo
pyricularia oryzae = settings: 16 ppm, rice seedlings cv. Tai-Nong 67, inoculated the next day, assessed after 6 days; untreated control 85%
Plasmopara viticola = test: Long-term activity against Plasmopara viticola on grapevines; settings: 16 ppm, grapevines cv. Müller-Thurgau, inoculated 7 days after spraying; untreated control 75%
Source text: 2) Long-term Activity Against Plasmopara viticola Leaves of potted grapevines cv. “Müller-Thurgau” were sprayed to runoff point with an aqueous active compound preparation which had been prepared from a stock solution comprising 10% of active compound, 63% of cyclohexanone and 27% of emulsifier. To assess the persistency of the substances, the plants were kept for 7 days in a greenhouse after the spray coating had dried on. Only then were the leaves inoculated with an aqueous zoospore suspension of Plasmopara viticola. The grapevines were then initially kept in a water vapor-saturated chamber at 24° C. for 48 hours and then in a greenhouse at 20-30° C. for 5 days. After this period of time, the plants were once more kept in a humid chamber for 16 hours to promote sporangiophore eruption. The extent of the infection on the undersides of the leaves was then assessed visually.

[1] = system: Erysiphe graminis forma specialis tritici; test: Protective activity against Erysiphe graminis var. tritici (powdery mildew of wheat); settings: 16 ppm, sprayed 24 h before inoculation, seedlings cv. Frühgold, assessed after 7 days; untreated control 80%
Description: 1) Protective Activity Against Erysiphe graminis var. tritici (Powdery Mildew of Wheat) Leaves of potted […] seedlings cv. “Frühgold” were sprayed to runoff point with an aqueous active compound preparation which had been prepared from a stock solution comprising 10% of active compound, 63% of cyclohexanone and 27% of emulsifier, and, 24 hours after the spray coating had dried on, dusted with spores of powdery mildew of wheat (Erysiphe graminis forma specialis tritici). The test plants were subsequently placed in a greenhouse at from 20 to 22° C. and a relative atmospheric humidity of 75 to 80%. After 7 days, the extent of mildew development was determined visually as % infection of the total leaf area.

CO/C=C(/C(=O)OC)c1cccnc1Oc1ccn(-c2ccc(Cl)cc2)n1 [I.3, Methyl methoxy-[2-(1-(4-chlorophenyl)-3-pyrazolyloxy)pyridin-3-yl]acrylate]
infestation on the leaves (pyricularia oryzae): 15%
infection on the undersides of the leaves (Plasmopara viticola): no infestation
infection (mildew development as % infection of the total leaf area) [1]: 5%
